# Reference: patent US20050158323A1, “Methods of killing tumor cells by targeting internal antigens exposed on apoptotic tumor cells” (Vaccinex, Inc., priority 2003, published 2005)
# Read-outs that look alike come from different tables or passages of the source.
# T1: recombinant human C35 (rhC35) (Homo sapiens, UniProt Q9BRT3)
# T1 construct: made in house; host or cells: E. coli
# T1 sequence (Q9BRT3 1-115): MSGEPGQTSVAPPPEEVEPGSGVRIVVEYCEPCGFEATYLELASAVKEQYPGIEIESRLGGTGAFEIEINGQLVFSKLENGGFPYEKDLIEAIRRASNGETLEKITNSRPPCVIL
# T2: C35 protein (Homo sapiens, UniProt Q9BRT3)
# T2 sequence (Q9BRT3 1-115): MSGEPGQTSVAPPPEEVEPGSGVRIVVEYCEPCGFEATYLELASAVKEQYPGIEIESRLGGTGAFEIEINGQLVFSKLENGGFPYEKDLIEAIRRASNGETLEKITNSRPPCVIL
# T3: recombinant human C35 (rhC35) (Homo sapiens, UniProt Q9BRT3)
# T3 construct: made in house; host or cells: E. coli
# T3 sequence (Q9BRT3 1-52): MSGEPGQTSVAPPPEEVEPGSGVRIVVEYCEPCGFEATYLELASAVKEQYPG
# T4: recombinant human C35 (rhC35) (Homo sapiens, UniProt Q9BRT3)
# T4 construct: made in house; host or cells: E. coli
# T4 sequence (Q9BRT3 1-104): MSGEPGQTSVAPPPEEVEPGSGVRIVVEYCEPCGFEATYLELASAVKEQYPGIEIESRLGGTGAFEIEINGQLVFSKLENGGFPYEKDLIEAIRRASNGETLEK
# Columns and labels:
# [1] = test system: Colau.C35 tumor cells; assay: Combination radioimmunotherapy and chemotherapy, second experiment (FIG. 6, Table 5); format: in vivo, Swiss nude mice
# Protocol: Swiss nude mice were grafted with Colau.C35 cells on day 0. Chemotherapy: Cisplatin administered at 2 mg/kg i.v. on days 15 & 18; 5FU/LV administered at 180/120 mg/kg i.v. on day 18. Radioimmunotherapy: 300 μCi (˜50 μg) of ^131I-labeled murine 1B3 anti-C35 IgG was administered on day 21.
# In a second experiment, the effect of combination radioimmunotherapy with ^131I labeled 1B3 anti-C35 monoclonal antibody and chemotherapy with cisplatin at 2 mg/kg on day 15 and 18 was tested in Swiss nude mice grafted with Colau.C35 tumor cells. Cispaltin was administered on days 15 and 18 following tumor graft. 300 μCi of ^131I-labeled 1B3 anti-C35 monoclonal antibody was administered on day 21. Tumor growth was followed for up to 10 weeks.
# In the same experiment, separate groups of Swiss nude mice grafted with Colau.C35 tumor cells were treated with either 5-FluoroUracil (5FU) at 180 mg/kg, together with Leucovorin (LV) at 120 mg/kg or this same chemotherapy regimen administered on day 18 followed by 300 μCi of ^131I-labeled 1B3 anti-C35 monoclonal antibody administered on day 21.
# [2] = nude mice, cited from earlier work
# [3] = test system: rabbit anti-human C35 polyclonal antibody; assay: ELISA of rabbit C35 immune serum on C35 derived 15 amino acid peptides; format: binding
# Source text: Rabbit polyclonal antibodies were raised to recombinant C35 employing standard immunization methods well known in the art. Overlapping peptides 15 amino acids in length were synthesized corresponding to the 115 amino acid long C35 protein sequence beginning at each amino acid residue from 1 to 101. Peptides are named based on the C35 position of the amino terminus residue in each 15 amino acid peptide. In each peptide that overlapped the cysteine residues at positions 30, 33 and 112 of the natural C35 sequence, alanine was substituted for cysteine to avoid formation of disulfide crosslinked peptides.
# Wells of 96 well Maxisorp microtiter plates were coated with either 2 μg C35 protein, or 14 μg or 40 μg of the indicated 15 amino acid peptide derived from the C35 protein sequence and binding of antibodies in the rabbit C35 immune serum was determined as described in detail below. Data in Table 11, below, is shown for the positive and negative controls and for those C35 derived peptides for which positive binding was detected. Variations in the level of peptide binding can be due to either differences in the concentration of specific antibody species, differences in antibody affinity or a combination thereof.
# C35 peptide 15-mers in 100% DMSO, 10 mg/ml, were aliquotted into 1.5 ml tubes, 40 μg/tube, under sterile conditions, then speed vacuumed to remove DMSO. The peptides were resuspended in PBS, pH7.2, 1 ml/tube, mixed well and spun down. Each peptide concentration (“peptide solution”) was 40 μg/ml. Peptide solution should be stored at −20° C. until use. Once thawed, it should be kept at 4° C. for no more than 2 weeks.
# For 14 μg/ml peptide coated plates, 65 μl PBS, pH7.2 per well was added, followed by 35 μl peptide solution per well (for a total volume of 100 μl/well), and mixed well. For 40 μg/ml peptide coated plates, 100 μl of peptide solution was placed directly on the plate, 100 μl/well. Control C35 protein was diluted into PBS, pH7.2 to 2 μg/ml and added to the plates, 100 μl/well. Coated plates were incubated at room temperature for 2 hours, then 4° C. overnight.
# Each plate was washed 3 times on a plate washer. […] The secondary antibody, HRP (horseradish peroxidase conjugated goat anti-rabbit Fc polyclonal antibody from Zymed, was diluted at a 1:20,000 dilution into assay diluent and added to the plates, 100 μl/well. The plates were incubated at room temperature for 2 hours. Plates were washed 7 times on a plate washer. Substrate was added as per the kit manufacturers instructions and incubated at room temperature in the dark for 15 minutes. The reaction was stopped by adding 2N H2SO4, 100 μl/well. Absorbance at 450-570 nm was read immediately.
# [4] = molecular target: T1, recombinant human C35 (rhC35); assay: Epitope localization by Western blot of Lys-C digested rhC35; format: binding; conditions: native C35 sequence numbering; 1 μg/ml antibody
# Source text: (§1) To localize the epitope specificity of 1B3 and 1F2 antibodies, recombinant human C35 (rhC35) synthesized with a 6× His tag in E. coli was digested with Lys-C endoproteinase. This enzyme cuts after lysine (K) residues in the protein sequence. […] The full sequence of rhC35, including the amino terminal 6× His tag addition is shown. Amino acid positions are numbered relative to the amino terminal methionine (M) of the native human sequence. Note that digestion at the first and third lysine followed by negatively charged residues is inefficient and some longer combination fragments may be generated. Lys-C endoproteinase was added to purified rhC35 at a […] weight ratio and incubated for 18 hours at 37° C. in 25 mM Tris, pH 8.0. The digest was ethanol precipitated and resolubilized in reducing Tricine sample buffer. After heating 5 minutes at 100° C., samples were separated by electrophoresis on a 16% Tricine gel (Invitrogen). Peptides were transferred to PVDF membranes and the blots depicted in FIG. 10 were either stained with Coomassie blue (lanes 1-3 of both left and right panels) to detect all peptides or processed with one of the following: 1 μg/ml of the murine 1F2 anti-C35 antibody followed by alkaline phosphatase conjugated goat anti-mouse antibody (lane 4 of left panel); 1 μg/ml of the 1B3 anti-C35 immunoglobulin variable regions linked to human constant regions (MAb11) followed by alkaline phosphatase conjugated goat anti-human antibody (lane 5 of left panel); or anti-6× His tag mouse antibody (Amersham) followed by alkaline phosphatase conjugated goat anti-mouse antibody (lane 4 and 5 of right panel). BCIP/NBT substrate was added and developed to detect the secondary reagents. Molecular weight markers are indicated in the flanking lanes of both panels.
# (§2) In FIG. 10, the indicated band A migrates at the position of undigested rhC35. Note that band B stains with 1F2 but not MAb11 (1B3) anti-C35 antibody while band C stains with neither 1F2 nor MAb11 (1B3) antibody. Since bands B and C both do stain with anti-6× His tag antibody to the 6× His tag at the amino terminus of rhC35, it may be concluded that both fragments lack C-terminal peptide fragments. […] This epitope is not required for staining with 1F2.
# [5] = molecular target: T2, C35 protein; assay: ELISA and Western Blot of hybridoma antibodies; format: binding; conditions: ELISA and Western Blot assays
# Protocol: (§3) Hybridoma cell lines IF2.4.1 and 1B3.6.1, specific for C35 polypeptides, were prepared using hybridoma technology. (Kohler et al., Nature 256:495 (1975); Kohler et al., Eur. J. Immunol. 6:511 (1976); Kohler et al., Eur. J. Immunol. 6:292 (1976); Hammerling et al., in: Monoclonal Antibodies and T-Cell Hybridomas, Elsevier, N.Y., pp. 571-681 (1981)). Briefly, hybridoma cell lines were generated using standard PEG fusion to the non-secreting myeloma cell line NS-1 (P3/NS1/1-AG4-1, ATCC #TIB-18) of splenocytes from BALB/c mice immunized with syngeneic BCA34 fibroblast tumor cells transduced to overexpress C35. Following PEG fusion to NS-1, the hybridomas were grown in methylcellulose semi-solid media. Approximately 2 weeks later, hybridoma colonies were isolated into 96 well plates and individual supernatants were tested for reactivity with C35 by ELISA, Western blot, and immunohistochemistry. Positive hybridomas colonies were subcloned and screened for reactivity twice to ensure clonality. Antibodies were isolated from hybridoma supernatants by protein G affinity purification using standard methods. […] In addition, we have developed intracellular staining flow cytometry assays for quantitative analysis using antibodies from hybridoma cell line 1F2 conjugated to Alexa-647 flourochrome. Each of these antibodies is distinct, yet both are specific for C35 protein. […]
# [6] = molecular target: T2, C35 protein; assay: Competitive binding ELISA; conditions: 1F2 versus 1B3
# Protocol: as §3
# [7] = molecular target: T3, recombinant human C35 (rhC35); assay: Epitope localization by Western blot of Lys-C digested rhC35; format: binding; conditions: Western blot, 1 μg/ml antibody
# Source text: as §1, §2
# [8] = molecular target: T4, recombinant human C35 (rhC35); assay: as above; format: binding; conditions: Western blot, 1 μg/ml antibody; remark: listed apart in the source
# Source text: as §1, §2
# [9] = non-toxic dose at indicated schedule
# [10] = literature values (footnotes 3-5)
# [11] = 14 μg/ml peptide coated plates, 100 ng/ml primary antibody (C35 protein control coated at 2 μg/ml)
# [12] = 40 μg/ml peptide coated plates, 1 μg/ml primary antibody (C35 protein control coated at 2 μg/ml)
molecule,measurement,setting,value
"N.N.[Cl][Pt][Cl] [Cisplatin alone, cisplatin]",inhibition of Colau.C35 tumor growth,"[1]; cisplatin 2 mg/kg days 15 and 18, 5FU/LV 180/120 mg/kg day 18, 300 μCi ^131I-1B3 day 21",some inhibition
same,LCK = Log Cell Kill = TDD/3.32,[1]; same regimens,0.20
same,T−C = difference in time for treated and control tumors to reach a given volume,"[1]; tumor volume 1200 mm^3, cisplatin 2 mg/kg days 15 and 18, 5FU/LV 180/120 mg/kg day 18, 300 μCi ^131I-1B3 day 21",5 days
same,TDD = Tumor doubling delay = T−C/tumor volume doubling time of untreated,"[1]; tumor volume 1200 mm^3, same regimens",0.66
O=P1(N(CCCl)CCCl)NCCCO1 (centres unmarked) [Cyclophosphamide],Maximum Tolerated Dose,[2]; [9],No toxicity^2
Nc1ccn([C@@H]2O[C@H](CO)[C@@H](O)C2(F)F)c(=O)n1 [Gemcitabine],Maximum Tolerated Dose,[2]; [9],No toxicity^5
CCc1c2c(nc3ccc(OC(=O)N4CCC(N5CCCCC5)CC4)cc13)-c1cc3c(c(=O)n1C2)COC(=O)[C@]3(O)CC [Irinotecan],Maximum Tolerated Dose,[2]; [10],15 mg/kg
CCC1=C[C@@H]2CN(C1)Cc1c([nH]c3ccccc13)[C@@](C(=O)OC)(c1cc3c(cc1OC)N(C)[C@H]1[C@@](O)(C(=O)OC)[C@H](OC(C)=O)[C@]4(CC)C=CCN5CC[C@]31[C@@H]54)C2 [Vinorelbine],Maximum Tolerated Dose,[2]; [10],20 mg/kg
FPYEKDLLEAIRRAS [Peptide P83],Absorbance @ 450-570 nm,[3]; [11],0.025
same,Absorbance @ 450-570 nm,[3]; [12],0.19
"1B3: mouse monoclonal anti-C35 antibody from hybridoma 1B3, gamma1 isotype, kappa light chain; VH SEQ ID NO:8, VK SEQ ID NO:10 (antibody, listed as Mus sp., V domains shown) VH: EVQLQESGPSLVKPSQTLSLTCSVTGDSITSGYWNWIRKFPGNKLEYVGYISYSGGTYYNPSLKSRISITRDTSKNHYYLQLNSVTTEDTATYYCARGAYYGGAFFPYFDVWGAGTTVTVSS VL: DVQITQSPSFLAASPGETITINCRASKYISKHLVWYQEKPGETKKLLIYSGSTLQSGLPSRFSGSGSGTDFTLTISSLEPEDFAMYYCQQHNEYPLTFGAGTKLELK",epitope specificity,[4],residues 105-115
same,binding to recombinant C35 protein,[5],specifically bind recombinant C35 protein
same,epitope comparison by competition,[6],bind different epitopes of the C35 protein
"MAb11 (1B3): 1B3 anti-C35 immunoglobulin variable regions linked to human constant regions (antibody, V domains shown) VH: EVQLQESGPSLVKPSQTLSLTCSVTGDSITSGYWNWIRKFPGNKLEYVGYISYSGGTYYNPSLKSRISITRDTSKNHYYLQLNSVTTEDTATYYCARGAYYGGAFFPYFDVWGAGTTVTVSS VL: DVQITQSPSFLAASPGETITINCRASKYISKHLVWYQEKPGETKKLLIYSGSTLQSGLPSRFSGSGSGTDFTLTISSLEPEDFAMYYCQQHNEYPLTFGAGTKLELK",staining of approximately 8 kDa band C (in addition lacks residues 53-104),[7],neither
same,staining of approximately 15 kDa band B (lacks C35 residues 105-115),[8],not
"C35 protein: control C35 protein coated at 2 μg/ml, positive control of the peptide ELISA (protein, UniProt Q9BRT3 2-112, looked up) Migration and invasion …: SGEPGQTSVAPPPEEVEPGSGVRIVVEYCEPCGFEATYLELASAVKEQYPGIEIESRLGGTGAFEIEINGQLVFSKLENGGFPYEKDLIEAIRRASNGETLEKITNSRPPC",Absorbance @ 450-570 nm,[3]; [11],3.765
same,Absorbance @ 450-570 nm,[3]; [12],3.5225
